Measured values taken from US4238495A, “1-(4-Cyano-phenoxy)-2-hydroxy-3-[2-(5-1H-tetrazolyl )-chromon-5-yloxy]-propane and salts thereof” (Miles Laboratories, Inc., priority 1976, dated 1980).

Assays:
[1] = test system: passive cutaneous anaphylaxis (skin wheals, egg albumin antigen); test: passive cutaneous anaphylaxis (PCA) test, egg albumin as the antigen, i.v.; type: in vivo; details: dose that reduced wheal diameter by 50%, injected i.v. together with antigen, rat PCA; for ED50: iv, read-out: ID50 (i.v.)
Description: (§1) Compounds described in above examples 3 and 4 were evaluated for anti-allergic activity in the rat by the passive cutaneous anaphylaxis test (hereafter PCA), utilizing egg albumin as the antigen.
The intensity of such PCA reactions is assessed by measuring the diameters of wheals which develop in the skin of the test animals. Details of the PCA test can be found in the following references: I. Mota, Life Sciences, 1: 465 (1963); and B. Ogilvie, Immunology, 12: 113 (1967).
(§2) In the following table, ID50 is the dose which reduced the diameter of the wheal by 50% when injected intravenously together with the antigen. LD50 is the intravenous dose that caused death in 50% of the test animals. Therapeutic index is the ratio, LD50/ID50. The reference compounds utilized were: disodium chromoglycate (DSCG); 1-(phenoxy)-2-hydroxy-3-[2-(5-1H-tetrazolyl)-chromon-5-yloxy]-propane; 1-(4-chloro-phenoxy)-2-hydroxy-3-[2-(5-1H-tetrazolyl)-chromon-5-yloxy]-propane; 1-(4-hydroxy-phenoxy)-2-hydroxy-3-[2-5-1H-tetrazolyl)-chromon-5-yloxy]-propane; 1-(4-propyl-phenoxy)-2-hydroxy-3-[2-5-1H-tetrazolyl)-chromon-5-yloxy]-propane; and sodium 1-(4-cyano-phenoxy)-2-hydroxy-3-(2-carboxy-chromon-5-yloxy)-propane.

in vivo [2] = details: rat
From the text: as §2

in vivo [3] = details: rat, in vivo, iv
Description: as §1, §2

[4] = test system: passive cutaneous anaphylaxis (skin wheals, egg albumin antigen); test: therapeutic index, LD50/ID50 (i.v. lethality over PCA)
Description: as §1, §2

[5] = iv, LD50 (i.v.), i.v. dose that caused death in 50% of test animals
[6] = THERAPEUTIC INDEX, ratio LD50/ID50

SMILES: CCCc1ccc(OCC(O)COc2cccc3oc(-c4nnn[nH]4)cc(=O)c23)cc1 (stereo not drawn) [Augstein C3 H7]
- ED50 [1]: > 25 µmol/kg
- LD50 (in vivo [2]; [5]): > 493 µmol/kg
- selectivity ratio (in vivo [3]; [6]): > 19.7

SMILES: O=c1cc(-c2nnn[nH]2)oc2cccc(OCC(O)COc3ccc(Cl)cc3)c12 (stereo not drawn) [Augstein Cl, 1-(4-chloro-phenoxy)-2-hydroxy-3-[2-(5-1H-tetrazolyl)-chromon-5-yloxy]-propane]
- ED50 [1]: 1.8 µmol/kg
- LD50 (in vivo [2]; in vivo): > 1.8 µmol/kg
- selectivity ratio (in vivo [3]): > 1

SMILES: N#Cc1ccc(OCC(O)COc2cccc3oc(C(=O)O)cc(=O)c23)cc1.[Na] (stereo not drawn)
- LD50 (in vivo [2]; iv, LD50 (i.v.)): 2380 µmol/kg
- selectivity ratio (in vivo [3]): 3170

SMILES: N#Cc1ccc(OCC(O)COc2cccc3oc(-c4nnn[nH]4)cc(=O)c23)cc1 (stereo not drawn) [compound 4, SODIUM 1-(4-CYANOPHENOXY)-2-HYDROXY-3-[2-(5-1H-TETRAZOLYL)CHROMON-5-YLOXY]-PROPANE]
- ID50 (i.v.) [1]: 0.075 µmol/kg
- therapeutic index compared with prior art compounds ([4]; versus any of the prior art compounds): still more superior than any of the prior art compounds

SMILES: N#Cc1ccc(OCC(O)COc2cccc3oc(-c4nnn[nH]4)cc(=O)c23)cc1 (stereo not drawn) [Ex. 3, 1-(4-CYANO-PHENOXY)-2-HYDROXY-3-[2-(5-1H-TETRAZOLYL)CHROMON-5-YLOXY]-PROPANE]
- ED50 [1]: 0.075 µmol/kg
- LD50 (in vivo [2]; [5]): > 1180 µmol/kg
- selectivity ratio (in vivo [3]; [6]): > 15800
- therapeutic index, times greater than the nearest conger disclosed in Warren ([4]; rat, in vivo): about 5 times
- therapeutic index, times greater than DSCG ([4]; versus DSCG): about 15 times

SMILES: O=c1cc(-c2nnn[nH]2)oc2cccc(OCC(O)COc3ccc(O)cc3)c12 (stereo not drawn) [Augstein OH]
- ED50 [1]: 0.675 µmol/kg
- LD50 (in vivo [2]; [5]): 1260 to 4950 µmol/kg
- selectivity ratio (in vivo [3]; [6]): 1870 to 7480

SMILES: O=c1cc(-c2nnn[nH]2)oc2cccc(OCC(O)COc3ccccc3)c12 (stereo not drawn) [Augstein H, 1-(phenoxy)-2-hydroxy-3-[2-(5-1H-tetrazolyl)-chromon-5-yloxy]-propane]
- ED50 [1]: 2.25 µmol/kg
- LD50 (in vivo [2]; [5]): > 1050 µmol/kg
- selectivity ratio (in vivo [3]; [6]): > 467

SMILES: O=C(O)c1cc(=O)c2c(OCC(O)COc3cccc4oc(C(=O)O)cc(=O)c34)cccc2o1 [DSCG, disodium chromoglycate]
- ED50 [1]: 1.7 µmol/kg
- LD50 (in vivo [2]; [5]): 1950 µmol/kg
- selectivity ratio (in vivo [3]; [6]): 1150
